Results as given in ChEMBL document CHEMBL1129398, “Non-peptide glycoprotein IIb/IIIa antagonists. 11. Design and in vivo evaluation of 3,4-dihydro-1 (1H)-isoquinolinone-based antagonists and ethyl ester prodrugs” (J Med Chem, 1996).

Columns and labels:
[1] = organism: Homo sapiens; assay: In vitro inhibition of human gel-filtered platelets; format: functional
[2] = organism: Homo sapiens; assay: in vitro inhibition of human gel-filtered platelets; format: functional
[3] = tested on: Canis familiaris; assay: Effect on inhibition of the extent of ex vivo ADP-induced aggregation in canine platelet rich plasma at dose of 0.3 mg/kg po; format: functional; conditions: Canis lupus familiaris
[4] = organism: Homo sapiens; assay: in vitro inhibition of human gel-filtered platelets using ADP agonist; format: functional
[5] = tested on: Canis familiaris; assay: Effect on inhibition of the extent of ex vivo ADP-induced aggregation in canine platelet rich plasma at dose of 0.1 mg/kg po; format: functional; conditions: Canis lupus familiaris
[6] = tested on: Canis familiaris; assay: Effect on inhibition of the extent of ex vivo ADP-induced aggregation in canine platelet rich plasma at dose of 0.5 mg/kg po; format: functional; conditions: Canis lupus familiaris
[7] = tested on: Canis familiaris; assay: Tmax was measured by calculating maximum time taken for ADP -induced plat let aggregation n canine platelet rich plasma at dose of 0.5 mg/kg po; Tmax hours; format: ADME, organism-based, Canis lupus familiaris; parameters: dose 0.5 mg/kg; conditions: dog, in vivo
[8] = tested on: Canis familiaris; assay: Tmax was measured by calculating maximum time taken for ADP -induced platelet aggregation in canine platelet rich plasma at dose of 0.5 mg/kg po; Tmax hours; format: ADME, organism-based, Canis lupus familiaris; parameters: dose 0.5 mg/kg; conditions: dog, in vivo

| SMILES | IC50 [2] [nM] | inhibition in vivo at 0.5 mg/kg [6] [%] | other results |
| --- | --- | --- | --- |
| O=C(O)CCNC(=O)CN1CCc2ccc(N3CCNCC3)cc2C1=O |  |  | IC50 [1]: 140 nM |
| C#C[C@H](CC(=O)O)NC(=O)CN1CCc2ccc(N3CCNCC3)cc2C1=O | 12 |  | inhibition in vivo at 0.3 mg/kg [3]: 80% |
| O=C(O)C[C@H](NC(=O)CN1CCc2ccc(N3CCOCC3)cc2C1=O)c1cccnc1 |  |  | IC50 [4]: > 300000 nM |
| C#C[C@H](CC(=O)O)NC(=O)CN1CCc2ccc(-c3ccncc3)cc2C1=O |  |  | IC50 [4]: 160 nM |
| C#C[C@H](CC(=O)O)NC(=O)CN1CCc2ccc(C3CCNCC3)cc2C1=O | 6 |  | inhibition in vivo at 0.3 mg/kg [3]: 100% |
| O=C(O)C[C@H](NC(=O)CN1CCc2ccc(N3CCNCC3)cc2C1=O)c1ccc[n+]([O-])c1 | 18 |  |  |
| C#C[C@H](CC(=O)OCC)NC(=O)Cn1c(=O)[nH]c2ccc(N3CCNCC3)cc2c1=O |  |  | inhibition in vivo at 0.1 mg/kg [5]: 0% |
| C#C[C@H](CC(=O)O)NC(=O)CN1CCc2cc(Cl)c(N3CCNCC3)cc2C1=O | 19 | 80 |  |
| C#C[C@H](CC(=O)O)NC(=O)Cn1c(=O)[nH]c2ccc(N3CCNCC3)cc2c1=O |  | 0 | IC50 [4]: 27 nM |
| C#C[C@H](CC(=O)OCC)NC(=O)CN1CCc2ccc(N3CCNCC3)c(Cl)c2C1=O |  | 100 |  |
| O=C(O)C[C@H](NC(=O)CN1CCc2ccc(N3CCNCC3)cc2C1=O)c1cccnc1 |  | 100 | T max [7]: 1; IC50 [4]: 13 nM |
| CCOC(=O)C[C@H](NC(=O)CN1CCc2ccc(N3CCNCC3)cc2C1=O)c1cccnc1 |  | 75 | T max [8]: 2.5 |
| C#C[C@H](CC(=O)O)NC(=O)Cn1ccc2ccc(N3CCNCC3)cc2c1=O |  |  | IC50 [4]: 81 nM |
| C#C[C@H](CC(=O)O)NC(=O)CN1CCc2cc(F)c(N3CCNCC3)cc2C1=O | 15 | 95 |  |
| O=C(O)C[C@@H](CCc1ccccc1)NC(=O)CN1CCc2ccc(N3CCNCC3)cc2C1=O | 16 | 20 |  |
| C#C[C@H](CC(=O)O)NC(=O)CN1CCc2ccc(N3CCNCC3)c(Cl)c2C1=O | 35 |  |  |
| C[C@H](CC(=O)O)NC(=O)CN1CCc2ccc(N3CCNCC3)cc2C1=O | 30 | 100 |  |
| C#C[C@H](CC(=O)O)NC(=O)Cn1cnc2ccc(N3CCNCC3)cc2c1=O |  |  | IC50 [4]: 330 nM |
| N[C@@H](CNC(=O)CN1CCc2ccc(N3CCNCC3)cc2C1=O)C(=O)O | 630 |  |  |
| C#C[C@H](CC(=O)OCC)NC(=O)CN1CCc2ccc(C3CCNCC3)cc2C1=O |  |  | inhibition in vivo at 0.3 mg/kg [3]: 40% |
| C#C[C@H](CC(=O)O)NC(=O)CN1CCc2ccc(N3CCNCC3)cc2C1 | 320 |  |  |
| C#C[C@H](CC(=O)OCC)NC(=O)CN1CCc2cc(F)c(N3CCNCC3)cc2C1=O |  |  | inhibition in vivo at 0.3 mg/kg [3]: 100% |
